Results reported in US20050004167A1, “Branched chain amino acid-dependent aminotransferase inhibitors and their use in the treatment of neurodegenerative diseases” (WARNER-LAMBERT COMPANY LLC, priority 2001, published 2005).

melting point | SMILES
238.4 to 239.1 °C | O=C(NNS(=O)(=O)c1cccc(Cl)c1)c1ccc2ncccc2c1 (hydrate or solvate) [Example 130, 6-Quinolinecarboxylic acid, 2-[(3-chlorophenyl)sulfonyl]hydrazide]
221.6 to 222.2 °C | Cc1c(C(=O)NNS(=O)(=O)c2ccccc2)oc2ccccc12 (hydrate or solvate) [Example 88, 2-Benzofurancarboxylic acid, 3-methyl-, 2-(phenylsulfonyl)hydrazide]
217.9 to 218.4 °C | Nc1ccccc1S(=O)(=O)NNC(=O)c1ccc2oc3ccccc3c2c1 [Example 166, 2-Dibenzofurancarboxylic acid, 2-[(2-aminophenyl)sulfonyl]hydrazide]
169 to 169.8 °C | CCCCCc1ccc(S(=O)(=O)Nc2ccc3oc(C(=O)NNS(=O)(=O)c4ccccc4)cc3c2)cc1 [Example 163, 2-Benzofurancarboxylic acid, 5-(4-pentylphenylsulfonylamino)-, 2-(phenylsulfonyl)hydrazide]
181 to 183 °C | Cc1ccc(S(=O)(=O)Nc2ccc3oc(C(=O)NNS(=O)(=O)c4ccccc4)cc3c2)cc1 [Example 161, 2-Benzofurancarboxylic acid, 5-(4-methylphenylsulfonylamino)-, 2-(phenylsulfonyl)hydrazide]
249.5 to 250.4 °C | O=C(NNS(=O)(=O)c1cccc(Cl)c1)c1cnc2ccccc2c1 (hydrate or solvate) [Example 131, 3-Quinolinecarboxylic acid, 2-[(3-chlorophenyl)sulfonyl]hydrazide]
213 to 214 °C | COc1ccc(S(=O)(=O)Nc2ccc3oc(C(=O)NNS(=O)(=O)c4ccccc4)cc3c2)cc1 [Example 160, 2-Benzofurancarboxylic acid, 5-(4-methoxyphenylsulfonylamino)-, 2-(phenylsulfonyl)hydrazide]
206.9 to 207.7 °C | Nc1ccc2oc(C(=O)NNS(=O)(=O)c3ccccc3)cc2c1 (hydrate or solvate) [Example 91, 2-Benzofurancarboxylic acid, 5-amino-, 2-(phenylsulfonyl)hydrazide]
160.4 to 161.1 °C | CCCc1ccc(S(=O)(=O)Nc2ccc3oc(C(=O)NNS(=O)(=O)c4ccccc4)cc3c2)cc1 [Example 165, 2-Benzofurancarboxylic acid, 5-(4-propyllphenylsulfonylamino)-, 2-(phenylsulfonyl)hydrazide]
239.3 to 239.9 °C | O=C(NNS(=O)(=O)c1ccc([N+](=O)[O-])cc1)c1ccc2oc3ccccc3c2c1 [Example 159, 2-Dibenzofurancarboxylic acid, 2-(4-nitrophenyl)sulfonyl hydrazide]
238.6 to 239.4 °C | Cc1cccc(S(=O)(=O)NNC(=O)c2cnc3ccccc3c2)c1 (hydrate or solvate) [Example 129, 3-Quinolinecarboxylic acid, 2-[(3-methylphenyl)sulfonyl]hydrazide]
79.1 to 79.9 °C | O=C(NNS(=O)(=O)c1ccccc1)c1cc2cc(Cl)ccc2[nH]1 [Example 171, 2-Indolecarboxylic acid, 5-chloro-2-phenylsulfonyl hydrazide]
225.9 to 227.1 °C | Cc1ccc2oc(C(=O)NNS(=O)(=O)c3ccccc3)c(C)c2c1 (hydrate or solvate) [Example 89, 2-Benzofurancarboxylic acid, 3,5-dimethyl-, 2-(phenylsulfonyl)hydrazide]
240.2 to 241.1 °C | Nc1ccc2[nH]c(C(=O)NNS(=O)(=O)c3ccccc3)cc2c1 [Example 150, 2-Indolecarboxylic acid, 5-amino-2-phenylsulfonyl hydrazide]
249 to 250 °C | O=C(NNS(=O)(=O)c1ccccc1)c1cnc2ccccc2c1 (hydrate or solvate) [Example 154, Quinoline-3-carboxylic acid 2-(phenylsulfonyl)hydrazide]
223 to 224 °C | CCOc1cccc2cc(C(=O)NNS(=O)(=O)c3ccccc3)oc12 [Example 147, 7-Ethoxy-2-benzofurancarboxylic acid 2-(phenylsulfonyl)-hydrazide]
94.7 to 95.5 °C | CC(C)Nc1ccc2oc(C(=O)NNS(=O)(=O)c3ccccc3)cc2c1 [Example 164, 2-Benzofurancarboxylic acid, 5-(N-isopropylamino)-, 2-(phenylsulfonyl)hydrazide]
246.8 to 247.8 °C | Cc1c(C(=O)NNS(=O)(=O)c2ccccc2)oc2ccc(Cl)cc12 (hydrate or solvate) [Example 90, 2-Benzofurancarboxylic acid, 5-chloro-3-methyl, 2-(phenylsulfonyl)hydrazide]
241.6 to 242.3 °C | O=C(NNS(=O)(=O)c1cc(Cl)cc(Cl)c1)c1ccc2ncccc2c1 (hydrate or solvate) [Example 138, 6-Quinolinecarboxylic acid, 2-[(3,5-dichlorophenyl)sulfonyl]hydrazide]

Further lines, the compound ahead of its results:

SMILES | melting point
Cc1ccc2oc(C(=O)NNS(=O)(=O)c3ccccc3)cc2c1 (hydrate or solvate) [Example 77, Benzofurancarboxylic acid, 5-methyl-, 2-(phenylsulfonyl)hydrazide] | 183.3 to 183.6 °C
COc1cccc2cc(C(=O)NNS(=O)(=O)c3cccc(C)c3)oc12 (hydrate or solvate) [Example 55, 2-Benzofurancarboxylic acid, 7-methoxy-, 2-[(3-methylphenyl)sulfonyl]hydrazide] | 170.8 to 171.8 °C
COc1cccc2cc(C(=O)NNS(=O)(=O)c3ccccc3C(F)(F)F)oc12 (hydrate or solvate) [Example 54, 2-Benzofurancarboxylic acid, 7-methoxy-, 2-[[2-(trifluoromethyl)phenyl]-sulfonyl]hydrazide] | 156.8 to 157.6 °C
COc1c(C(=O)NNS(=O)(=O)c2ccccc2C(F)(F)F)oc2c(OC)cccc12 (hydrate or solvate) [Example 62, 2-Benzofurancarboxylic acid, 3,7-dimethoxy-, 2-[(2-trifluoromethylphenyl)-sulfonyl]hydrazide] | 190.6 to 192.3 °C
O=C(NNS(=O)(=O)c1ccccc1)c1cc2cc([N+](=O)[O-])ccc2o1 (hydrate or solvate) [Example 34, 2-Benzofurancarboxylic acid, 5-nitro-, 2-(phenylsulfonyl)hydrazide] | 207.7 to 208.1 °C
CN(C)c1ccc2oc(C(=O)NNS(=O)(=O)c3ccccc3)cc2c1.Cl | 218.3 to 218.9 °C
O=C(NNS(=O)(=O)c1ccccc1)c1ccc2c(c1)OCO2 (hydrate or solvate) [Example 10, Benzo[1,3]dioxole-5-carboxylic acid 2-(phenylsulfonyl)hydrazide] | 156 to 158 °C
CN(C)c1ccc(S(=O)(=O)NNC(=O)c2ccc3oc4ccccc4c3c2)cc1.Cl | 187.6 to 188.8 °C
Cc1ccc2oc(C(=O)NNS(=O)(=O)c3ccccc3C)cc2c1 (hydrate or solvate) [Example 81, 2-Benzofurancarboxylic acid, 5-methyl-, 2-[2-(methylphenyl)sulfonyl]hydrazide] | 174.5 to 174.7 °C
Cc1cccc(S(=O)(=O)NNC(=O)c2cc3cc(C)ccc3o2)c1 (hydrate or solvate) [Example 80, 2-Benzofurancarboxylic acid, 5-methyl-, 2-([3-methylphenyl)sulfonyl]hydrazide] | 184.1 to 186 °C
COc1c(C(=O)NNS(=O)(=O)c2ccccc2)oc2c(OC)cccc12 (hydrate or solvate) [Example 61, 2-Benzofurancarboxylic acid, 3,7-dimethoxy-, 2-(phenylsulfonyl)hydrazide] | 177.9 to 179.6 °C
Cc1ccc2oc(C(=O)NNS(=O)(=O)c3cccc(Cl)c3C)cc2c1 (hydrate or solvate) [Example 82, 2-Benzofurancarboxylic acid, 5-methyl-, 2-[(3-chloro-2-methylphenyl)sulfonyl]-hydrazide] | 182.4 to 184 °C
Cc1cccc2cc(C(=O)NNS(=O)(=O)c3ccccc3)oc12 (hydrate or solvate) [Example 86, 2-Benzofurancarboxylic acid, 7-methyl-, 2-(phenylsulfonyl)hydrazide] | 217.5 to 218 °C
Cc1ccc2oc(C(=O)NNS(=O)(=O)c3cccc(Cl)c3)cc2c1 (hydrate or solvate) [Example 84, 2-Benzofurancarboxylic acid, 5-methyl-, 2-[(3-chlorophenyl)sulfonyl]hydrazide] | 186.1 to 186.3 °C
CN(C)c1ccccc1S(=O)(=O)NNC(=O)c1ccc2oc3ccccc3c2c1.Cl | 103.2 to 103.9 °C
COc1c(C(=O)NNS(=O)(=O)c2ccccc2)oc2ccc(Cl)cc12 (hydrate or solvate) [Example 78, 2-Benzofurancarboxylic acid, 5-chloro-3-methoxy, 2-(phenylsulfonyl)hydrazide] | 242.2 to 244.2 °C
Cc1cccc2oc(C(=O)NNS(=O)(=O)c3ccccc3)cc12 (hydrate or solvate) [Example 87, 2-Benzofurancarboxylic acid, 4-methyl-, 2-(phenylsulfonyl)hydrazide] | 217 to 218 °C
COc1ccc2oc(C(=O)NNS(=O)(=O)c3ccccc3)c(OC(C)C)c2c1 (hydrate or solvate) [Example 57, 2-Benzofurancarboxylic acid, 5-methoxy-3-(1-methylethoxy), 2-(phenylsulfonyl)-hydrazide] | 127 to 129 °C
CN(C)c1ccc2[nH]c(C(=O)NNS(=O)(=O)c3ccccc3)cc2c1.Cl | 251.6 to 252.7 °C
COc1c(C(=O)NNS(=O)(=O)c2ccccc2)oc2c(-c3ccccc3)cccc12 (hydrate or solvate) [Example 67, 2-Benzofurancarboxylic acid, 3-methoxy-7-phenyl-, 2-(phenylsulfonyl)hydrazide] | 186.7 to 187.3 °C
O=C(NNS(=O)(=O)c1ccccc1)c1cccc2cccnc12 (hydrate or solvate) [Example 21, Quinoline-8-carboxylic acid 2-(phenylsulfonyl)hydrazide] | 173 to 175 °C
COc1c(C(=O)NNS(=O)(=O)c2cccc(C)c2)oc2c(OC)cccc12 (hydrate or solvate) [Example 64, 2-Benzofurancarboxylic acid, 3,7-dimethoxy-, 2-[(3-methylphenyl)sulfonyl]-hydrazide] | 179.4 to 180.9 °C
